These results are taken from patent US5855906A, “Intravaginal drug delivery devices for the administration of 17β-oestradiol precursors” (priority 1994, dated 1999).

Molecules are shown by their SMILES. Values after ≈ are worked out from the molar mass of the structure shown. “Also recorded” adds a separate entry of the source. Where two headings read alike, the source gives them in different places.

The nature of data set [1]: In vitro dissolution: mean daily release from full-length-core rings over up to 90 days in three media. It counts as physicochemical. Details: key to Mean Daily Release: **: Not detected. To be noted: 9 × 54 mm ring, core 141 × 2 mm, 37 °C, N = 4. The text has this: In all cases the ring geometries comprise a ring of dimensions 9 mm (cross-sectional diameter)×54 mm (outer diameter) and containing a full length core (141 mm) of cross-sectional diameter 2 mm. […] The saline and benzalkonium chloride-containing media were chosen to ensure `sink conditions` in at least one medium for each intravaginal ring. It will be recognised by those skilled in the art that the term `sink conditions` refers to that set of experimental conditions in vitro which effectively simulates the active haemoperfusion that occurs in vivo, and which results in a maximum drug concentration gradient and maximum drug diffusion rate, at any given time, across the aqueous boundary layer. Thus, an in vitro dissolution experiment can be designed such that the solution solubility of the released drug in the dissolution medium is much greater than its bulk concentration in this medium at any given time, for example, by micellar drug solubilisation due to incorporation of a surfactant such as benzalkonium chloride (BKC), at a concentration above its critical micelle concentration. Thus, each ring was suspended by a thread in an individual closed flask containing the dissolution medium, maintained at a constant temperature of 37° C. The contents of the flask were gently agitated in order to prevent the occurrence of a hydrostatic layer on the surface of the ring. After 24 hours, the ring was removed and suspended in a flask of fresh dissolution medium of identical volume by a method identical to that previously described.

Data set [2] is described as follows: In vitro release from rings of varying core length and apparent/standard k value (Crank's equation). It counts as physicochemical. Also noted: Standard k: unit not given here. To be noted: for k (using core of 141 mm length) / k (standard k): Table 5; for Mean Daily Release / Standard k: Table 4; for Mean Daily Release / Mean Daily Release (as precursor): n = 5; for k / apparent k value versus core length: 1% (w/v) BKC; for k: in µg/day/mm; for Mean Daily Release (as precursor): 250 ml 1% (w/v) BKC; for apparent k value versus core length: Table 3 rings. The text has this: Precursor release from a cylindrical device of core design, which comprises a polymer matrix in the form of a core incorporating 17β-oestradiol precursor and a sheath surrounding the core, can be described by Crank's equation: [formula] in which R=precursor release rate (μg/day)
Crank's equation relates the precursor release rate (R), in sink conditions, to the solubility (C2 S) and diffusibility (D) of the precursor in the polymer matrix, its partition characteristics (π) between the polymer matrix and the dissolution medium; and the ring dimensions (l, b, a). For any given precursor in any given polymer matrix, CS, D and π will be constant and can be grouped together to form the composite constant, k:
The k value can be empirically derived using Crank's equation in the following manner: [formula]
The k value is dependent on core length for certain of the 17β-oestradiol precursors (see Example 6 hereinafter). Accordingly, the k value at a core length of 35 mm has been denoted "standard k" value hereinafter.
Intravaginal drug delivery devices in the form of rings were prepared, each with a ring geometry as described in Table 3, by following the General Method of Manufacture set out hereinabove.
The dissolution medium was changed daily, following the protocol set out hereinabove. Mean daily release rates from the second week of dissolution experiments were used to determine the apparent k values presented in Table 3.
It was, therefore, decided to determine k values at a core length of 35 mm and such k values are hereinafter referred to as "standard k" values.
The standard k value was determined from the mean daily release rates observed in Example 6. The dissolution medium of 1.0% (w/v) of an aqueous solution of benzalkonium chloride was used in respect of the various 17β-oestradiol precursors, so as to ensure sink conditions.

The conditions of data set [3]: compiled from Novel Drug Delivery Systems (Chien); cited from earlier work.
Data set [4] is described as follows: Aqueous solubility in distilled water at 20 °C. To be noted: for requisite aqueous solubility (not less than 1 μg per 100 ml): 20 °C.
The conditions of data set [5]: cited from earlier work.
The conditions of data set [6]: 17β-oestradiol ring; EP 0 253 109 0.5 to 25 μg per day; Smith et al 5 to 10 μg per day; cited from earlier work.
The conditions of data set [7]: non-oral preparations, read-out: plasma levels of 17β-oestradiol, cited from earlier work.
The conditions of data set [8]: shell ring; cited from earlier work.
The conditions of data set [9]: shell ring, 58 mm × 9.5 mm; cited from earlier work.
Data set [10] is described as follows: Silicone solubility at 37 °C in Dow Corning 360 medical fluid. To be noted: organic solvent or mixture. It counts as physicochemical. On the procedure: Silicone solubility was determined at 37° C. in Dow Corning (Trade Mark) 360 medical fluid.
A further data set is described as follows: physchem. The note with it: distilled water.
Data set [11] in a line: Nominal in vitro daily release from intravaginal rings under sink conditions (1% w/v benzalkonium chloride, 37 °C). It counts as physicochemical. To be noted: "100 μg" ring, core 2×141 mm. On the procedure:
The nominal in vitro release rates set out in Table 1 for the rings of Examples 1-5 were determined under sink conditions of 1% (w/v) benzalkonium chloride. These release rates were determined in the following manner.
Each ring (n=4) was suspended in the dissolution medium in an individual flask which is then capped, placed in a suitable oven at 37° C. and shaken. The dissolution medium was changed every 24 hours (±30 minutes). An aliquot of the used dissolution medium was analysed by high performance liquid chromatography (HPLC) using reverse phase packing and UV detection (at 235 nm for 17β-oestradiol-3-acetate and for
. The sensitivity of the original and improved analytical methods is 5 μg/100 ml.

Data set [12] can be described thus: In vitro plasma hydrolysis (stability in human blood at 37 °C).
The mark [13] stands for this setting: 1.0% (w/v) BKC, core length 35 mm.
Setting [14] is: core length 35 mm, 1.0% (w/v) BKC.

With `CCCCC(=O)O[C@H]1CC[C@H]2[C@@H]3CCc4cc(O)ccc4[C@H]3CC[C@]12C` [17β-oestradiol-17-valerate, reference compound], the entries for the “Mean Daily Release” value in data set [1] (0.133% (w/v) BKC), in data set [1] (0.9% (w/v) saline) and in [1] (1.0% (w/v) BKC) were 365 μg per day, “**” and 550 μg per day, respectively. The “k (using core of 141 mm length)” value in data set [2] is reported as 5.86 μg/day/mm. In addition, the Silicone solubility in data set [3] is on record as 15.02 mg/100 ml. In data set [4], the “requisite aqueous solubility (not less than 1 μg per 100 ml)” value is given as “too low; also recorded: not possessing the requisite aqueous solubility”.
As for `C[C@]12CC[C@@H]3c4ccc(OC(=O)c5ccccc5)cc4CC[C@H]3[C@@H]1CC[C@@H]2O` [reference compound], the “Mean Daily Release” value in data set [1] (0.133% (w/v) BKC) was 42 μg per day; in data set [1] (0.9% (w/v) saline), less than 5 μg per day; in [1] (1.0% (w/v) BKC), 66 μg per day. Besides, the “k (using core of 141 mm length)” value in data set [2] was 0.70 μg/day/mm. Also, the Silicone solubility in [3] is 3.68 mg/100 ml. Also, the “requisite aqueous solubility (not less than 1 μg per 100 ml)” value in [4] is “not possessing the requisite aqueous solubility”.
As for `C[C@]12CC[C@@H]3c4ccc(O)cc4CC[C@H]3[C@@H]1CC[C@@H]2O` [17β-oestradiol], in data set [1] (0.9% (w/v) saline), the “Mean Daily Release” value stood at 8 μg per day. For the same molecule, in [2], the “k (using core of 141 mm length)” value is on record as 0.09 μg/day/mm. The “initial serum 17β-oestradiol level” value in [5] (homogeneous ring 400 mg, within one hour, 60 min) was “about 700 pg/ml”. Moreover, in data set [5] (shell ring (100, 200 or 400 mg), one hour after insertion, 60 min), the “mean serum 17β-oestradiol” value was 300 pg/mL. Moreover, the “mean serum 17β-oestradiol (in words)” value in data set [5] (shell ring, baseline 24 pg/ml) was “approached the baseline level of 24 pg/ml within 24 hours; also recorded: falling back to the baseline at 2 and 3 months”. Moreover, in data set [6], the “alleviation of symptoms of hypo-oestrogenism (in words)” value was “symptoms in the human female arising from a hypo-oestrogenic condition can be alleviated; also recorded: effective at alleviating those symptoms associated with hypo-oestrogenism that relate specifically to atrophy of vaginal and urethral epithelium”. The values for the concentration in [7] (transdermal 50 μg per day (low dose)) and in data set [7] (transdermal 100 μg per day (high dose)) were roughly 0.2 nM and roughly 0.36 nM, respectively. In [8], the “in vitro release rate of 17β-oestradiol” value is 200 μg per day. For the same molecule, the daily release in data set [9] was 180 μg per day.
Regarding `C#C[C@]1(O)CC[C@H]2[C@@H]3CCC4=CC(=O)CC[C@@H]4[C@H]3CC[C@@]21CC` [levonorgestrel], the daily release in [9] was 290 μg per day.
For the molecule `CCC(=O)Oc1ccc2c(c1)CC[C@@H]1[C@@H]2CC[C@]2(C)[C@@H](O)CC[C@@H]12`, the “Mean Daily Release” value in data set [1] (1.0% (w/v) BKC) was 1200 μg per day; in data set [2] (0.9% (w/v) saline, core length 35 mm), 250 to 350 µg/day; in data set [2] (setting [13]), 300.00 µg/day. Also, the Standard k in [2] (setting [14]) came to 12.89. Further, the “k (standard k)” value in data set [2] (core length 35 mm) was 12.89 μg/day/mm. The k in data set [2] (core length 35 mm), in data set [2] (core length 70 mm) and in data set [2] (core length 140 mm) was 12.89 in each case. The “Mean Daily Release (as precursor)” value in data set [2] (core length 35 mm) turned out to be 300.00 µg/day; in data set [2] (core length 70 mm), 600.00 µg/day; in data set [2] (core length 140 mm), 1200.00 µg/day. In addition, the values for the solubility (in data set [10]; in the data set “physchem”) were 300 µg/mL (≈ 913 µM) and 2.3 µg/mL (≈ 7 µM), respectively.
As to `CCC(=O)O[C@H]1CC[C@H]2[C@@H]3CCc4cc(O)ccc4[C@H]3CC[C@]12C`, the “Mean Daily Release” value in data set [1] (0.133% (w/v) BKC) stood at 112 μg per day; in data set [1] (0.9% (w/v) saline) it was 26 μg per day; in data set [1] (1.0% (w/v) BKC), 218 μg per day; in data set [2] (setting [13]), 42.86 µg/day. The “apparent k value versus core length” value in [2] is on record as “varies with core length”. Also, the Standard k in data set [2] (setting [14]) came to 1.842. Also, the “k (standard k)” value in data set [2] (core length 35 mm) was found to be 1.842 μg/day/mm. The k in data set [2] (core length 17 mm) was 2.130; in [2] (core length 35 mm) it was 1.842; in data set [2] (core length 70 mm), 1.795; in data set [2] (core length 140 mm), 1.667. Moreover, the “Mean Daily Release (as precursor)” value in data set [2] (core length 17 mm) turned out to be 24.08 µg/day; in data set [2] (core length 35 mm), 42.86 µg/day; in data set [2] (core length 70 mm), 83.54 µg/day; in [2] (core length 140 mm) it was 155.20 µg/day. The amount in solution in the data set “physchem” (solubility) came to 0.05 µg/mL (≈ 0.152 µM).
In the case of `CC(=O)O[C@H]1CC[C@H]2[C@@H]3CCc4cc(O)ccc4[C@H]3CC[C@]12C`, in data set [11], the “nominal in vitro daily release rate” value amounted to 100 µg. The “Mean Daily Release” value in data set [1] (0.9% (w/v) saline) came out at 24 μg per day; in data set [1] (1.0% (w/v) BKC), 96 μg per day; in data set [2] (setting [13]), 19.50 µg/day. Also, the “apparent k value versus core length” value in [2] was “varies with core length”. Moreover, the Standard k in [2] (setting [14]) is reported as 0.838. In addition, the “k (standard k)” value in data set [2] (core length 35 mm) stood at 0.838 μg/day/mm. Moreover, the k in [2] (core length 35 mm) is 0.8380; in [2] (core length 70 mm), 0.8797; in data set [2] (core length 140 mm), 0.9395. Besides, the “Mean Daily Release (as precursor)” value in data set [2] (core length 35 mm) was 19.50 µg/day; in data set [2] (core length 70 mm), 40.94 µg/day; in data set [2] (core length 140 mm) it was 87.45 µg/day. Moreover, the solubility was found to be 17 µg/mL (≈ 54.1 µM) in data set [10] (Dow Corning 360 medical fluid, 37 °C, read-out: Silicone solubility) and 0.12 µg/mL (≈ 0.382 µM) in data set [4] (water). This molecule gave a half-life in data set [12] of 4 h.
